Reference: patent publication US11993664B2, “Crystalline form of compound and uses thereof in medicine” (priority 2018, dated 2024)
“And” between values parts separate entries of the source, which are not always exact repeats. Equal entries are not always repeated. Where two headings read alike, the source gives them in different places.

Tests used:
[1] = physchem; type: physicochemical; conditions: water, thermodynamic from solid
Experimental: Agilent 1100 HPLC was utilized to measure solubility and purity, method listed in Table 4 and Table 5, respectively.
Solubility of the crystalline form A was estimated in six solvents at RT. Approximately 2 mg of solids were weighed into each 3-mL glass vial, to which each of the solvents in Table 8 was added in increments of 100 μL until the solids dissolved completely or the total volume reached 2 mL.

[2] = Heating experiments with HPLC purity of heated samples; type: physicochemical
Experimental: Agilent 1100 HPLC was utilized to measure solubility and purity, method listed in Table 4 and Table 5, respectively. To figure out if a different crystal form of freebase existed at elevated temperature as shown by two endothermic peaks in DSC curve in FIG. 2, heating experiments of the crystalline form A were conducted and HPLC purity of heated samples was also detected. […] Also, lower purity at 150° C. compared with 160° C. was speculated to be related to increasing isothermal time.

[3] = Stress testing under high temperature (60° C.); type: physicochemical; conditions: for Purity / Change of purity in the high temperature test: 60° C.
[4] = Stress testing under high photolysis (4500 Lux); type: physicochemical
[5] = parameters: species or system beagle dogs; conditions: dog
Experimental: Pharmacokinetic test of compounds in beagle dogs (weigh: 10-12 kg, male, age: 10-12 months, three members in each oral group and intravenous group) was shown as follows.
Beagle dogs received test compounds at a dose of 2.5 mg/kg or 5 mg/kg by oral gavage or at a dose of 1 mg/kg or 2 mg/kg by intravenous injection.
Blood samples of vein were taken at 0.083, 0.25, 0.5, 1, 2, 4, 6, 8 and 24 hours after the administration, and collected in anticoagulation tube with EDTA-K2. The test compounds were extracted from plasma samples by liquid-liquid extraction. Then quantitative analysis was performed on a triple-quadrupole tandem mass spectrometer using multiple reaction monitoring (MRM). Pharmacokinetic parameters were calculated using a noncompartmental method by WinNonLin 6.3 software.

[6] = parameters: species or system ICR mice; conditions: mouse
Experimental: Pharmacokinetic test of compounds in mice (weigh: 20-25 g, male, age: 45-60 days, three members in each oral group and intravenous group) was shown as follows.
ICR mice received test compounds at a dose of 10 mg/kg by oral gavage or at a dose of 2 mg/kg or 10 mg/kg by tail intravenous injection. Blood samples of orbital vein were taken at 0.083, 0.25, 0.5, 1, 2, 4, 6, 8 and 24 hours after the administration, and collected in anticoagulation tube with EDTA-K2. The test compounds were extracted from plasma samples by liquid-liquid extraction. Then quantitative analysis was performed on a triple-quadrupole tandem mass spectrometer using multiple reaction monitoring (MRM). Pharmacokinetic parameters were calculated using a noncompartmental method by WinNonLin 6.1 software.

[7] = parameters: species or system SD rats; conditions: rat
Experimental: Pharmacokinetic test of compounds of the invention in SD rats (weigh: 200-250 g, male, age: 2-3 months, three members in each oral group and intravenous group) was shown as follows. Rats received test crystal form A at a dose of 2.5 mg/kg or 5 mg/kg by oral gavage or at a dose of 1 mg/kg by intravenous injection. Blood samples of vein were taken at 0.083, 0.25, 0.5, 1, 2, 5, 7 and 24 hours after the administration, and collected in anticoagulation tube with EDTA-K2. The test compounds were extracted from plasma samples by liquid-liquid extraction. Then quantitative analysis was performed on a triple-quadrupole tandem mass spectrometer using multiple reaction monitoring (MRM). Pharmacokinetic parameters were calculated using a noncompartmental method by WinNonLin 6.3 software.

[8] = system: con 1b derived bi-cistronic replicon; test: HCV replicon assay, con 1b bi-cistronic replicon; type: cell-based; conditions: Hepatitis C virus, LUC endpoint, 72 hours
Description: (§1) The purpose of this study was to assess the potential anti-HCV activity of SCY-635 (free base crystalline form A) in the well-characterized genotype-1 replicon. The first reproducible HCV replication system in cell culture (Huh7 hepatoma cell line) was reported in 1999 (Lohmann et al., 1999). The assay utilizes bi-cistronic subgenomic viral RNAs, or replicons, that encode nonstructural proteins and have the cis RNA elements required for autonomous replication. Replicons are self-replicating RNA molecules that contain all of the nucleotide sequences required for HCV replication, transcription, and translation, but are not infectious.
(§2) SCY-635 (free base crystalline form A) was studied in the HCV Replicon assay to evaluate its ability to inhibit HCV genomic replication. […]
(§3) The compound was dissolved in dimethyl sulfoxide (DMSO) and diluted into culture medium at five half-log concentrations, ranging from either 0.02 to 2.0 μM (for SCY-635), or 0.2 to 20 μM (for CsA). […] EC50 and EC90 values were derived from HCV RNA levels assessed as HCV RNA replicon derived LUC activity. […] IC50 and IC90 values were calculated using a colorimetric assay as an indication of cell numbers and cytotoxicity. […]

[9] = system: con 1b derived full length replicon; test: HCV replicon assay, con 1b full length replicon; type: cell-based; conditions: Hepatitis C virus
[10] = system: H77 replicon (genotype 1a); test: HCV replicon assay, H77 replicon; type: cell-based; conditions: Hepatitis C virus
Description: as §1, §2, §3

[11] = system: human hepatoma cell line ET (lub ubi neo/ET); test: Cytotoxicity in the replicon assay (colorimetric assay of cell numbers); conditions: replicon cells, 72 hours
Description: SCY-635 (free base crystalline form A) was examined in the human hepatoma cell line ET (lub ubi neo/ET), an HCV RNA replicon containing a stable luciferase (LUC) reporter. The HCV RNA replicon ET contains the 5′ end of HCV (with the HCV Internal Ribosome Entry Site (IRES) and the first few amino acids of the HCV core protein) which drives the production of a firefly luciferase (LUC), ubiquitin, and neomycin phosphotransferase (NeoR) fusion protein. Ubiquitin cleavage releases the LUC and NeoR proteins. The EMCV IRES element controls the translation of the HCV […] NS3-NS5. The NS3 protein cleaves the HCV polyprotein to release the mature NS3, NS4A, NS4B, NS5A and NS5B proteins that are required for HCV replication. The 3′ end of the replicon contains the authentic 3′ NTR of HCV. […]
as §3

[12] = monkey, in vivo
[13] = in vivo
[14] = target: cyclophilin A (Homo sapiens, UniProt P62937); conditions: background statement; cited from earlier work
Sequence of cyclophilin A (P62937 whole entry, species assumed): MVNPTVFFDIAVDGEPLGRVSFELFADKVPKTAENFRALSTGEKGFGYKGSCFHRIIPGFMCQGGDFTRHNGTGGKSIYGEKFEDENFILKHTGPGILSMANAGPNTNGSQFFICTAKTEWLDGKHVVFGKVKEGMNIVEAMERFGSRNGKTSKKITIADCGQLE

[15] = heated to 150 °C, isothermal 20 min
[16] = heated to 160 °C, isothermal 3 min
[17] = heated to 170 °C, isothermal 2 min
[18] = heated to 180 °C, isothermal 3 min
[19] = day 0, listed as The crystalline form A of SCY-635 free base
[20] = listed as crystalline form A of SCY-635 free base

Structure (SMILES): C/C=C/C[C@@H](C)[C@@H](O)[C@H]1C(=O)N[C@@H](CC)C(=O)N(C)[C@H](SCCN(C)C)C(=O)N(C)[C@@H](CC(C)(C)O)C(=O)N[C@@H](C(C)C)C(=O)N(C)[C@@H](CC(C)C)C(=O)N[C@@H](C)C(=O)N[C@H](C)C(=O)N(C)[C@@H](CC(C)C)C(=O)N(C)[C@@H](CC(C)C)C(=O)N(C)[C@@H](C(C)C)C(=O)N1C [SCY-635 free base crystalline form A, (3 S,6S,9S,12R,15S,18S,21S,24S,27R,30S,33S)-27-((2-(dimethylamino)ethyl)thio)-30-ethyl-33-((1R,2R,E)-1-hydroxy-2-methylhex-4-en-1-yl)-24-(2-hydroxy-2-methylpropyl)-6,9,18-triisobutyl-3,21-diisopropyl-1,4,7,10,12,15,19,25,28-nonamethyl-1,4,7,10,13,16,19,22,25,28,31-undecaazacyc lotritriacontan-2,5,8,11,14,17,20,23,26,29,32-undecaone]
- solubility [1]: < 1100 µg/mL
- Appearance [2, 15]: Liquated
- Purity [2, 15]: 95.6 Area %
- Solid form after heating (XRPD) ([2]; heated to 160° C.): converted to be amorphous
- Appearance [2, 16]: Liquated
- Purity [2, 16]: 97.6 Area %
- Appearance [2, 17]: Liquated
- Purity [2, 17]: 94.3 Area %
- Appearance [2, 18]: Liquated
- Purity [2, 18]: 88.3 Area %
- Purity ([2]; starting material, not heated): 100.0 Area %
- Purity [3, 19]: 98.0%
- Purity ([3]; day 10, listed as The crystalline form A of SCY-635 free base): 98.1%
- Purity ([3]; day 30): 98.0%
- Change of purity in the high temperature test [3, 20]: not changed
- Total impurity and major impurities in stress testing ([3]; high temperature and photolysis conditions): did not increase
- Purity [4, 19]: 98.0%
- Purity ([4]; day 30): 98.0%
- Change of purity in the high photolysis test [4, 20]: not changed
- Pharmacokinetic properties in vivo [5]: better pharmacokinetic properties
- Oral bioavailability ([5]; in vivo, po): orally bioavailable
- Pharmacokinetic properties in vivo [6]: better pharmacokinetic properties
- Oral bioavailability ([6]; in vivo, po): orally bioavailable
- Pharmacokinetic properties in vivo [7]: better pharmacokinetic properties
- Oral bioavailability ([7]; in vivo, po): orally bioavailable
- EC50 [8]: 100 nM and 0.132 µg/mL
- EC90 [8]: 350 nM and 0.463 µg/mL
- EC50 [9]: 170 nM and 0.225 µg/mL
- EC90 [9]: 690 nM and 0.912 µg/mL
- EC50 [10]: 0.198 µg/mL and 150 nM
- EC90 [10]: 1.38 µM and 1.82 µg/mL
- Cell cytotoxicity in the replicon assay [11]: absence of cell cytotoxicity
- Oral bioavailability [12]: orally bioavailable
- Oral bioavailability ([13]; human, po): orally bioavailable
- Pharmacokinetic behavior [13]: dose-dependent pharmacokinetic behavior

Structure (SMILES): C/C=C/C[C@@H](C)[C@@H](O)[C@H]1C(=O)N[C@@H](CC)C(=O)N(C)[C@H](SCCN(C)C)C(=O)N(C)[C@@H](CC(C)(C)O)C(=O)N[C@@H](C(C)C)C(=O)N(C)[C@@H](CC(C)C)C(=O)N[C@@H](C)C(=O)N[C@H](C)C(=O)N(C)[C@@H](CC(C)C)C(=O)N(C)[C@@H](CC(C)C)C(=O)N(C)[C@@H](C(C)C)C(=O)N1C [SCY-635]
- Concentration inhibiting peptidyl prolyl isomerase (PPlase) catalytic activity [14]: low nanomolar

Structure (SMILES): C/C=C/C[C@@H](C)[C@@H](O)[C@H]1C(=O)N[C@@H](CC)C(=O)N(C)[C@H](SCCN(C)C)C(=O)N(C)[C@@H](CC(C)(C)O)C(=O)N[C@@H](C(C)C)C(=O)N(C)[C@@H](CC(C)C)C(=O)N[C@@H](C)C(=O)N[C@H](C)C(=O)N(C)[C@@H](CC(C)C)C(=O)N(C)[C@@H](CC(C)C)C(=O)N(C)[C@@H](C(C)C)C(=O)N1C [The amorphous form of SCY-635 free base]
- Change of purity in the high temperature test [3]: continued to decrease
- Purity ([3]; day 0): 98.2%
- Purity ([3]; day 10): 97.9%
- Purity ([3]; day 50): 97.7%
- Change of purity in the high photolysis test [4]: continued to decrease
- Purity ([4]; day 0): 98.2%
- Purity ([4]; day 10): 98.1%
- Purity ([4]; day 50): 98.0%
